Values after ≈ are worked out from the molar mass of the structure shown. Where two headings read alike, the source gives them in different places.
Experiments:
Format in all cases: cell-based
[1] = system: A. baumannii strains; experiment: MIC against A. baumannii strains (Table M8); details: Acinetobacter baumannii, BAA747, A. baumannii BAA747-1
[2] = system: SA506 S. aureus ermA positive msrA unknown; experiment: broth dilution MIC, S. aureus SA506; details: Staphylococcus aureus
Excerpt: (§1) We have collected MIC data for a total of 50 novel macrolides that this platform has produced against over 21 unique strains of B. subtilis, E. coli, S. aureus, S. pneumoniae, and H. influenzae, including several multidrug-resistant strains, with a special focus on macrolide resistant mechanisms (vide supra). Azithromycin was included as a control macrolide. CLSI standard procedures for broth dilution MIC determination were used. […] These genotypes can be constitutive or inducible. The finding that C4-epi (unnatural) isomers of the “azaketolide” macrolide class have enhanced activities relative to C4 natural isomers is very exciting.

[3] = system: S. pneumoniae strains; experiment: MIC against S. pneumoniae strains (Tables M7, M8); details: Streptococcus pneumoniae
Excerpt: CLSI standard procedures for broth dilution MIC determination were used. […] These genotypes can be constitutive or inducible.

[4] = system: SA418 S. aureus ermA negative msrA positive; experiment: broth dilution MIC, S. aureus SA418; details: Staphylococcus aureus
Excerpt: as §1

[5] = system: EC878 E. coli tolC; experiment: broth dilution MIC, E. coli EC878; details: Escherichia coli
Procedure, shortened: (§2)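 Standard CLSI broth dilution method used for MIC determination. Control: azithromycin.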

[6] = system: E. coli strains; experiment: MIC against E. coli strains (Table M7); details: Escherichia coli, ATCC25922, E. coli ATCC 25922
Procedure, shortened: as §2

[7] = system: H. influenzae strains; experiment: MIC against H. influenzae strains (Table M8); details: Haemophilus influenzae
Procedure, shortened: as §2

[8] = system: S. aureus strains; experiment: MIC against S. aureus strains (Table M7); details: Staphylococcus aureus
Procedure, shortened: as §2

[9] = system: S. aureus (Newman, clinical isolate); experiment: MIC, S. aureus Newman; details: Staphylococcus aureus, S. aureus (Neuman, clinical isolate), round 2
Excerpt: as §1

[10] = system: E. faecalis strains; experiment: MIC against E. faecalis strains (Table M8); details: Enterococcus faecalis, E. faecalis 29212
[11] = system: EC882 E. coli imp; experiment: broth dilution MIC, E. coli EC882; details: Escherichia coli
Procedure, shortened: as §2

[12] = system: HI281 H. influenzae; experiment: broth dilution MIC, H. influenzae HI281; details: Haemophilus influenzae
Excerpt: as §1

[13] = system: K. pneumoniae strains; experiment: MIC against K. pneumoniae strains (Table M8); details: Klebsiella pneumoniae, K. pneumoniae 10031
[14] = system: HI175 H. influenzae ATCC49247; experiment: broth dilution MIC, H. influenzae HI175; details: Haemophilus influenzae
Excerpt: as §1

[15] = system: EC107 E. coli ATCC25922; experiment: broth dilution MIC, E. coli EC107; details: Escherichia coli, read-out: MIC
Procedure, shortened: as §2

[16] = system: BS1725 B. subtilis ermC; experiment: broth dilution MIC, B. subtilis BS1725; details: Bacillus subtilis, BS1725 B. subtilis ermC (+ery)
Procedure, shortened: as §2

[17] = system: SA1708 S. aureus ermA positive msrA negative; experiment: broth dilution MIC, S. aureus SA1708; details: Staphylococcus aureus
Excerpt: as §1

[18] = system: SA1707 S. aureus ermA negative msrA positive; experiment: broth dilution MIC, S. aureus SA1707; details: Staphylococcus aureus
Excerpt: as §1

[19] = system: E. coli (MC4100); experiment: MIC, E. coli MC4100; details: Escherichia coli, round 2, read-out: MIC
Excerpt: as §1

[20] = system: Spn1509 S. pneumoniae ermB positive mefA negative; experiment: broth dilution MIC, S. pneumoniae Spn1509; details: Streptococcus pneumoniae; Spn1509 S. pneumoniae ermB positive mefA negative; read-out: MIC
Excerpt: as §1

[21] = system: SA557 S. aureus ermA unknown msrA positive; experiment: broth dilution MIC, S. aureus SA557; details: Staphylococcus aureus; SA557 S. aureus ermA unknown msrA positive; read-out: MIC
Excerpt: as §1

[22] = system: BS1723 B. subtilis BS168 WT wild type; experiment: broth dilution MIC, B. subtilis BS1723; details: Bacillus subtilis, BS1723 B. subtilis BS168 WT wild type; read-out: MIC
Procedure, shortened: as §2

[23] = system: SA183 S. aureus ermA positive msrA unknown; experiment: broth dilution MIC, S. aureus SA183; details: Staphylococcus aureus
Excerpt: as §1

[24] = system: Spn 106 S. pneumonia ATCC49619; experiment: broth dilution MIC, S. pneumoniae Spn 106; details: Streptococcus pneumoniae
Excerpt: as §1

[25] = system: Spn1537 S. pneumoniae ermB positive mefA positive; experiment: broth dilution MIC, S. pneumoniae Spn1537; details: Streptococcus pneumoniae
Excerpt: as §1

[26] = system: Spn160 S. pneumoniae ermB unknown mefA positive; experiment: broth dilution MIC, S. pneumoniae Spn160; details: Streptococcus pneumoniae
Excerpt: as §1

[27] = system: Spn1533 S. pneumoniae ermB positive mefA positive; experiment: broth dilution MIC, S. pneumoniae Spn1533; details: Streptococcus pneumoniae
Excerpt: as §1

[28] = system: SA101 S. aureus ATCC29213; experiment: broth dilution MIC, S. aureus SA101; details: Staphylococcus aureus, ATCC29213, SA101 S. aureus ATCC29213; read-out: MIC
Procedure, shortened: as §2

[29] = S. pneumoniae 160, read-out: MIC S. pneumonae (160)
[30] = S. pneumoniae 1509, read-out: MIC S. pneumoniae (1509)
[31] = S. pneumoniae 1533, read-out: MIC S. pneumoniae (1533)
[32] = S. pneumoniae 1537, read-out: MIC S. pneumoniae (1537)
[33] = H. influenzae 49247, read-out: MIC H. influenzae (49247)
[34] = H. influenzae 49766, read-out: MIC H. influenzae (49766)
[35] = ATCC29213, S. aureus ATCC 29213, read-out: MIC S. aureus (ATCC 29213)
[36] = S. aureus 506, read-out: MIC S. aureus (506)
[37] = S. aureus 1708, read-out: MIC S. aureus (1708)
[38] = USA300, S. aureus USA300, read-out: MIC S. aureus (USA300)

Q: How did the MIC [1] turn out when CC[C@H]1OC(=O)[C@H](C)C(=O)[C@H](C)[C@@H](O[C@@H]2OC(C)CC(N(C)C)C2O)[C@](C)(OC)C[C@@H](C)CN[C@H](C)[C@H]2N(CCCCn3cc(-c4cccc(N)c4)nn3)C(=O)O[C@]12C (stereo partly drawn) [FSM-20707] was run?
A: 8 µg/mL (≈ 9.66 µM)

Q: What about the MIC [2] of the same compound?
A: > 32 µg/mL

Q: And the MIC [3, 29]?
A: 0.125 µg/mL (≈ 0.151 µM)

Q: And the MIC [3, 30]?
A: 1 µg/mL (≈ 1.21 µM)

Q: What about the MIC [3, 31] of the same compound?
A: > 32 µg/mL

Q: What about the MIC [3, 32] of the same compound?
A: > 32 µg/mL

Q: And the MIC ([3]; read-out: MIC S. pneumoniae (49619))?
A: ≤ 0.0625 µg/mL

Q: And the MIC [4]?
A: 1 µg/mL (≈ 1.21 µM)

Q: And the MIC [5]?
A: 0.5 µg/mL (≈ 0.604 µM)

Q: What about the MIC [6] of the same compound?
A: 4 µg/mL (≈ 4.83 µM)

Q: And the MIC [7, 33]?
A: 0.5 µg/mL (≈ 0.604 µM)

Q: What about the MIC [7, 34] of the same compound?
A: 2 µg/mL (≈ 2.42 µM)

Q: And the MIC [8, 35]?
A: 1 µg/mL (≈ 1.21 µM)

Q: And the MIC ([8]; S. aureus 183, read-out: MIC S. aureus (183))?
A: > 32 µg/mL

Q: What about the MIC [8, 36] of the same compound?
A: > 32 µg/mL

Q: And the MIC [8, 37]?
A: 1 µg/mL (≈ 1.21 µM)

Q: And the MIC [8, 38]?
A: 4 µg/mL (≈ 4.83 µM)

Q: And the MIC [9]?
A: 0.5 µg/mL (≈ 0.604 µM)

Q: And the MIC [10]?
A: 0.25 µg/mL (≈ 0.302 µM)

Q: What about the MIC [11] of the same compound?
A: 0.0625 µg/mL (≈ 0.0755 µM)

Q: What about the MIC [12] of the same compound?
A: 4 µg/mL (≈ 4.83 µM)

Q: What about the MIC [13] of the same compound?
A: 2 µg/mL (≈ 2.42 µM)

Q: And the MIC [14]?
A: 1 to 2 µg/mL (≈ 1.21 to 2.42 µM)

Q: What about the MIC [15] of the same compound?
A: 8 µg/mL (≈ 9.66 µM)

Q: What about the MIC [16] of the same compound?
A: 8 µg/mL (≈ 9.66 µM)

Q: What about the MIC [17] of the same compound?
A: 1 to 2 µg/mL (≈ 1.21 to 2.42 µM)

Q: And the MIC [18]?
A: 0.5 to 2 µg/mL (≈ 0.604 to 2.42 µM)

Q: What about the MIC [19] of the same compound?
A: 4 µg/mL (≈ 4.83 µM)

Q: What about the MIC [20] of the same compound?
A: 0.25 to 2 µg/mL (≈ 0.302 to 2.42 µM)

Q: And the MIC [21]?
A: 0.5 to 1 µg/mL (≈ 0.604 to 1.21 µM)

Q: And the MIC [22]?
A: 0.5 µg/mL (≈ 0.604 µM)

Q: What about the MIC [23] of the same compound?
A: > 32 µg/mL

Q: And the MIC ([24]; Spn 106 S. pneumonia ATCC49619, read-out: MIC)?
A: 0.0156 to 0.0312 µg/mL (≈ 0.0188 to 0.0377 µM)

Q: And the MIC [25]?
A: 32 µg/mL (≈ 38.6 µM)

Q: And the MIC [26]?
A: 0.0625 to 0.125 µg/mL (≈ 0.0755 to 0.151 µM)

Q: Which results are given for CC[C@H]1OC(=O)[C@H](C)C(=O)[C@H](C)[C@@H](O[C@@H]2OC(C)CC(N(C)C)C2O)[C@](C)(OC)C[C@@H](C)CN[C@H](C)[C@H]2N(CCCCn3cc(-c4cccc(N)n4)nn3)C(=O)O[C@]12C (stereo partly drawn) [FSM-20715]?
A: MIC [1]: 8 µg/mL (≈ 9.65 µM); MIC [2]: > 32 µg/mL; MIC [3, 29]: 0.25 µg/mL (≈ 0.302 µM); MIC [3, 30]: 2 µg/mL (≈ 2.41 µM); MIC [3, 31]: > 32 µg/mL; MIC [3, 32]: > 32 µg/mL; MIC ([3]; S. pneumoniae 49619, read-out: MIC S. pneumoniae (49619)): 0.125 µg/mL (≈ 0.151 µM); MIC [4]: 2 µg/mL (≈ 2.41 µM); MIC [5]: 0.5 µg/mL (≈ 0.603 µM); MIC [6]: 8 µg/mL (≈ 9.65 µM); MIC [7, 33]: 0.5 µg/mL (≈ 0.603 µM); MIC [7, 34]: 2 µg/mL (≈ 2.41 µM); MIC [8, 35]: 1 µg/mL (≈ 1.21 µM); MIC [8, 36]: > 32 µg/mL; MIC [8, 37]: 2 µg/mL (≈ 2.41 µM); MIC [8, 38]: 2 µg/mL (≈ 2.41 µM); MIC [27]: > 32 µg/mL; MIC [10]: 0.25 µg/mL (≈ 0.302 µM); MIC [11]: 0.0312 µg/mL (≈ 0.0376 µM); MIC [12]: 4 µg/mL (≈ 4.82 µM); MIC [13]: 2 µg/mL (≈ 2.41 µM); MIC [14]: 2 µg/mL (≈ 2.41 µM); MIC [15]: 4 µg/mL (≈ 4.82 µM); MIC [16]: 16 µg/mL (≈ 19.3 µM); MIC [17]: 2 µg/mL (≈ 2.41 µM); MIC [18]: 2 µg/mL (≈ 2.41 µM); MIC [20]: 0.5 to 2 µg/mL (≈ 0.603 to 2.41 µM); MIC [28]: 1 to 2 µg/mL (≈ 1.21 to 2.41 µM); MIC [21]: 1 µg/mL (≈ 1.21 µM); MIC [22]: 1 µg/mL (≈ 1.21 µM); MIC [23]: > 32 µg/mL; MIC ([24]; ATCC49619): 0.0156 to 0.0312 µg/mL (≈ 0.0188 to 0.0376 µM); MIC [25]: > 32 µg/mL; MIC ([26]; Spn160 S. pneumoniae ermB unknown mefA positive, read-out: MIC): 0.125 to 0.25 µg/mL (≈ 0.151 to 0.302 µM)
